Data set [1] can be described thus: Retention of radioiodine during photolysis (model benzophenone). The note with it: receptor photolabeling conditions, twice the photolysis time. It counts as physicochemical.
In data set [2] the target is anti-substance P antibody. As to the kind of experiment: Radioimmunoassay: displacement of [^125 I]BHSP from anti-substance P antibody. The note with it: for IC50: antibody dilution 1/160,000, [^125 I]BHSP 3.3 pM, 4° C. overnight, mean±standard deviation of ≥3 experiments. Format: binding.
Data set [3] has as its target T1, SPR in P388D1 cells (Mus musculus, UniProt P30548).
T1 construct: a nontransfected murine macrophage/monocyte cell line; endogenous in cells; host or cells: P388D1 (murine macrophage/monocyte cell line)
It counts as binding, murine. The procedure:
Percentage of tracer bound was determined by solubilization and counting after washing away excess unbound tracer. […] The data shown is the average of four experiments containing triplicate samples in each. IC50 is expressed as the mean±standard deviation of ≥4 experiments.
Protease inhibitors (0.004% bacitracin, 0.0002% chymostatin, 0.0004% leupeptin) and 0.1% BSA was added to the confluent cells (approximately 1×10^6 cells/well in DMEM and 10% FBS) and incubated for 30 min at room temperature (25° C.). The cells were then washed twice (0.5 ml/well) with ice-cold buffer (DMEM+20 mM HEPES, pH 7.2) and incubated with 0.5 ml of buffer on ice for at least 10 min in the presence of protease inhibitors and 0.1% BSA. […] After incubation, the cells were washed twice with 0.5 ml/well phosphate-buffered saline (104 mM NaCl, 2.7 mM KCl, 10 mM Na2 HPO4, 1.8 mM KH2 PO4, pH 7.2), then solubilized by 0.5 ml lysis buffer (1% Nonidet P-40, 0.2% SDS, 150 mM NaCl, 50 mM Tris, pH 8.0) for 20 min and transferred for gamma counting. […] Curve fitting was performed as described above.

Data set [4] addresses T1, SPR in P388D1 cells. As to the kind of experiment: Photoaffinity labeling of SPR in P388D1 cells. It counts as binding, murine. The note with it: presence of excess unlabeled SP or CP-96,345.
Description: P388D1 cells (5×10^6 cells/5 ml) were inoculated on FBS-pretreated dishes (60 mm) in DMEM with 10% FBS and grown overnight. The cultured cells (approximately 1×10^7) were incubated with protease inhibitors and 0.1% BSA for 30 min at room temperature (25° C.). The cells were then washed twice (5 ml) with ice-cold buffer (DMEM+20 mM HEPES, pH 6.7) and incubated with 5 ml of buffer on ice for at least 10 min, in the presence of protease inhibitors, and 0.1% BSA. […] The dishes were then frozen by placement on crushed dry ice. The frozen sample was irradiated under nitrogen for 2 h using a focused HBO 100-watt mercury short arc lamp through an optical filter to eliminate light below 310 nm. A second filter removed infrared wavelengths (>900 nm) to minimize sample heating during photolysis (Li et al., 1995a). Alternatively, the sample can be irradiated in a commerical photoreactor at 3500 Å.
After photolysis, the sample was thawed and any remaining attached cells were scraped from the bottom of the plate. The sample was transferred to microfuge tubes and centrifuged at 16,000 g for 30 min. The pelleted cells were hypotonically lysed by resuspending in 0.3 ml of 5 mM Tris-HCl, pH 8.0, for 15 min at room temperature. Then the samples were homogenized and centrifuged at 500 g for 15 min to remove debris. […]

The values below come from patent US5986136A, “Photolabeling reagent” (President and Fellows of Harvard College, priority 1998, dated 1999).

Molecules are shown by their SMILES. Entries after “also recorded” stand apart in the source; their conditions may differ.

T1 sequence (P30548 whole entry, one chain of several): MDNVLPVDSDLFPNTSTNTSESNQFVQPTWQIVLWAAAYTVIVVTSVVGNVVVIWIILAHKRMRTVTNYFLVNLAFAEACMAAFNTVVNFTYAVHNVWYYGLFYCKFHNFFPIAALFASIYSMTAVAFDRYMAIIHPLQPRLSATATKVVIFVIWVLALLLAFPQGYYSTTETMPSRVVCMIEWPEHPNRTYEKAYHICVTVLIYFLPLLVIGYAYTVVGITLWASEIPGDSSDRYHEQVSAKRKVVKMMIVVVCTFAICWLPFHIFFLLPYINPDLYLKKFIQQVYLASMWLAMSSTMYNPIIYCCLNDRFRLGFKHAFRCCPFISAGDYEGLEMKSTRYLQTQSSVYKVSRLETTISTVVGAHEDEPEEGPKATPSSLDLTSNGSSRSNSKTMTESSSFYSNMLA

With `O=C(c1ccccc1)c1ccc(O)c([125I])c1` [[^125 I]-3-iodo-4-hydroxybenzophenone], in data set [1], the “radioiodine remaining incorporated in the starting material after photolysis” value was “greater than 98%”.
For orientation: IC50 means the midpoint of a concentration-inhibition curve. `CSCC[C@H](NC(=O)[C@H](CC(C)C)NC(=O)CNC(=O)[C@H](Cc1ccccc1)NC(=O)[C@H](Cc1ccccc1)NC(=O)[C@H](CCC(N)=O)NC(=O)[C@H](CCC(N)=O)NC(=O)[C@@H]1CCCN1C(=O)[C@H](CCCCN)NC(=O)[C@@H]1CCCN1C(=O)[C@@H](N)CCCNC(=N)N)C(N)=O` [SP, reference compound] registered an IC50 in data set [2] of 0.071 ± 0.006 nM.
`CSCC[C@H](NC(=O)[C@H](CC(C)C)NC(=O)CNC(=O)[C@@H](Cc1ccc(C(=O)c2ccc(O)cc2)cc1)NC(=O)[C@H](Cc1ccccc1)NC(=O)[C@H](CCC(N)=O)NC(=O)[C@H](CCC(N)=O)NC(=O)[C@@H]1CCCN1C(=O)[C@H](CCCCN)NC(=O)[C@@H]1CCCN1C(=O)[C@@H](N)CCCNC(=N)N)C(N)=O` [D-HBPA^8 -SP]: the IC50 turned out to be 1.5 ± 0.34 nM on SPR in P388D1 cells [3] (tracer 25 pM [^125 I]BHSP, 2 h on ice, mean±standard deviation of ≥4 experiments, read-out: IC50 for displacement of [^125 I]BHSP) and 0.39 ± 0.04 nM in data set [2].
With `CSCC[C@H](NC(=O)[C@H](CC(C)C)NC(=O)CNC(=O)[C@H](Cc1ccc(C(=O)c2ccc(O)cc2)cc1)NC(=O)[C@H](Cc1ccccc1)NC(=O)[C@H](CCC(N)=O)NC(=O)[C@H](CCC(N)=O)NC(=O)[C@@H]1CCCN1C(=O)[C@H](CCCCN)NC(=O)[C@@H]1CCCN1C(=O)[C@@H](N)CCCNC(=N)N)C(N)=O` [L-HBPA^8 -SP, ArgProLysProGlnGlnPhe(L-HBPA)GlyLeuMet-NH2], the “activity with both a SP specific antibody and SPR, receptor part (in words)” value on SPR in P388D1 cells [3] (first HPLC peak versus second) was “more active than the second”. Also, the “affinity / specificity for SPR (in words)” value at SPR in P388D1 cells [3] (murine SP receptor, P388D1 cells) was “bind with high affinity and specificity to SPR; also recorded: a specific as well as a high affinity ligand for the receptor”. This compound yielded a half-inhibitory concentration (IC50) in data set [2] of 0.052 ± 0.008 nM. Moreover, the “affinity for anti-SP antiserum (in words)” value in data set [2] (compared with native SP or other diastereomer) was “binds to the antibody with a higher affinity”. Besides, the “activity with both a SP specific antibody and SPR, antibody part (in words)” value in data set [2] (first HPLC peak versus second) is on record as “more active than the second”.
For `COc1ccccc1CN[C@H]1C2CCN(CC2)[C@H]1C(c1ccccc1)c1ccccc1` [CP-96,345, (2S, 3S)-cis-2-(diphenylmethyl)-N-[(2-methoxyphenyl)-methyl]-1-aza-bicyclo[2.2.2]octan-3-amine], on SPR in P388D1 cells [4], the “inhibition of photolabeling by [^125 I]HBPA^8 -SP” value was “completely inhibited”.
